Laboratory results reported in US20110160147A1, “NOVEL DUAL TARGETING A[…]” (priority 2008, published 2011).
Read-outs that look alike come from different tables or passages of the source.

Key:
Format in all cases: cell-based, human
[1] = system: A2780 ovarian carcinoma cells; details: A2780, 1 h of treatment; read-out: IC50 ± SD, antiadhesive effect to vitronectin
Protocol: (§1) A2780 human ovarian carcinoma and PC3 prostate carcinoma cells were grown in medium culture RPMI 1640 containing 10% fetal bovine serum and 50 μg/ml gentamycin sulfate. Cells were maintained in a 37° C. incubator with saturated humidity and an atmosphere of 95% air and 5% CO2. A2780 tumour cell line expresses high levels of αvβ5 integrin, and PC3 low levels of both integrins.
(§2) In 96-well tissue culture plates, 50 μl/well of a solution of vitronectin (5 μg/ml) were added for 2 h at room temperature. The solutions were removed upsetting the plates. 50 μl/well of a solution 1% BSA were added for 1 h at RT. The plates were washed by addition of 100 μl/well of medium culture RPMI 1640 without fetal calf serum (FCS). The washing was repeated twice. The molecules were added at different concentrations in the range between 0.039 μM and 20 μM. The solutions were prepared by dilution 1:2 in medium culture without FCS. Tumour cells in the flasks were washed in saline solution before to be detached by scraper, by the addition of 5 ml of medium culture without FCS and 1% BSA. Tumour cells were counted after resuspension and added at an appropriate cellular density (40000-50000 cells/well). The plates were incubated for 1 h at 37° C. in humidified incubator with 5% CO2. Then, the solutions were removed upsetting the plates and washed once with 200 μl/well of PBS with Ca^2+ e Mg^2+. Tumour cells were fixed with 100 μl of a solution 4% paraformaldehyde in 0.2 M Sorensen phosphate buffer pH 7.2-7.4 for 10 min at RT The plates were upset and 100 μl of 1% Toluidine Blu solution were added for 10 min at RT The plates were washed twice by immersion in bi-distilled water and then dried at 60° C. in thermostat incubator (Kottermann). 100 μl/well of 1% SDS were added. The plates were kept under stirring for 20 min at RT and were then evaluated by Victor 1420 multilabel counter (Wallac) at 600 nm.
(§3) The IC50 value as parameter to measure the inhibiting effect of the molecules on tumour cell adhesion to vitronectin was evaluated using “ALLFIT” computer program.

[2] = system: PC3 prostate carcinoma cells; details: PC3, 1 h of treatment; read-out: IC50 ± SD, antiadhesive effect to vitronectin
Protocol: as §1, §2, §3

[3] = system: PC3 prostate carcinoma cells; assay: Cytotoxicity, sulphorodamine B test (PC3); details: PC3, 72 h of treatment; read-out: IC50 ± SD, cytotoxicity
Protocol: (§4) To evaluate the effect of the compound on survival cells, the sulphorodamine B test was used. To measure the effects of the compounds on cell growth, PC3 human prostate carcinoma and A2780 human ovarian carcinoma cells were used. A2780 and PC3 tumour cells were grown RPMI 1640 containing 10% fetal bovine serum (GIBCO).
(§5) Tumour cells were seeded in 96-well tissue culture plates at approximately 10% confluence and were allowed to attach and recover for at least 24 h. Varying concentrations of the drugs were then added to each well to calculate their IC50 value (the concentration which inhibits the 50% of cell survival). The plates were incubated at 37° C. for 72 h. At the end of the treatment, the plates were washed by removal of the supernatant and addition of PBS 3 times. 200 μl PBS and 50 μl of cold 80% trichloroacetic acid (TCA) were added. The plates were incubated on ice for at least 1 h. TCA was removed and the plates were washed 3 times by immersion in distilled-water and dried on paper and at 40° C. for 5 min. Then 200 μl of 0.4% sulphorodamine B in 1% acetic acid were added. The plates were incubated at RT for further 30 min. Sulphorodamine B was removed, the plates were washed by immersion in 1% acetic acid 3 times, then they were dried on paper and at 40° C. for 5 min. Then 200 μl Tris 10 mM were added, the plates were kept under stirring for 20 min. The cell survival was determined by means of optical density using a Multiskan spectrofluorimeter at 540 nm. The amount of cells killed was calculated as the percentage decrease in sulphorodamine B binding compared with control cultures.
(§6) The IC50 values were calculated with the “ALLFIT” program.

[4] = system: A2780 ovarian carcinoma cells; assay: Cytotoxicity, sulphorodamine B test (A2780); details: A2780, 72 h of treatment; read-out: IC50 ± SD, cytotoxicity
Protocol: as §4, §5, §6

SMILES: CC[C@@]1(O)C(=O)OCc2c1cc1n(c2=O)Cc2c-1nc1ccccc1c2C=NOCCNC(=O)OCc1ccc(NC(=O)[C@H](CCCNC(N)=O)NC(=O)[C@H](C)NC(=O)COCCOCCOCC(=O)NCc2ccc(C[C@@H]3NC(=O)[C@@H](Cc4ccccc4)NC(=O)[C@H](CC(=O)O)NC(=O)CNC(=O)[C@H](CCCNC(=N)N)NC3=O)cc2)cc1 [ST3833]
- IC50 [1]: 900 ± 50 nM
- IC50 [2]: 2100 ± 200 nM
- IC50 [3]: 4600 ± 800 nM
- IC50 [4]: 95 ± 20 nM
